Molecular target: T1, GlcAT-I (GST-GlcAT-I) (Homo sapiens, UniProt O94766)
T1 construct: gene B3GAT3; truncated GlcAT-I, GST fusion, E. coli, purified
T1 sequence (O94766 29-335 limits assumed): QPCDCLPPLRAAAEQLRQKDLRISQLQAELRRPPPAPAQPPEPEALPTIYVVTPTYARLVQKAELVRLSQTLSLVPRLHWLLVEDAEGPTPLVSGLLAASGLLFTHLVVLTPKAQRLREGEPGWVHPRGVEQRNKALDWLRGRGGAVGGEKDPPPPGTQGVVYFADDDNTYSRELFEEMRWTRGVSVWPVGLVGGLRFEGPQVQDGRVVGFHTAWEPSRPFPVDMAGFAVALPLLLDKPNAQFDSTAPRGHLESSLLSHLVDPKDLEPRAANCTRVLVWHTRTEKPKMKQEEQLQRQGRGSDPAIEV
Assay: UDP-Glo glycosyltransferase assay
Format: biochemical
Details: acceptor; 5 mM UDP-GlcA, 100 mM sodium acetate pH 6.5, 10 mM MnCl2, 37 °C, 60 min

## COc1ccc2ccc(O[C@@H]3OC[C@@H](O[C@@H]4O[C@H](CO)[C@H](O)[C@H](O[C@@H]5O[C@H](CO)[C@H](O)[C@H](O)[C@H]5O)[C@H]4O)[C@H](O)[C@H]3O)cc2c1 [Gal-Gal-Xyl-OMN]
  UDP-Glo glycosyltransferase assay: GlcAT-I was highly active towards the trisaccharide Gal-Gal-Xyl-OMN

Reference: article PMC12406734, “B3GALT6 mutations lead to compromised connective tissue biomechanics in Ehlers-Danlos syndrome” (JCI Insight, 2025)
